Test results published in patent US20190167676A1, “METHODS FOR IMPROVING RESISTANCE TO SKELETAL MUSCLE FATIGUE” (Cytokinetics, Inc., priority 2012, published 2019).

How the values were obtained:
[1] = test system: rat plantarflexor muscles; test: Rat plantar flexor force and power in situ; assay type: in vivo
From the text: Rats were placed under anesthesia using isoflurane and the sciatic nerve of the experimental leg exposed. The rat was then placed on the platform of an Aurora in-situ muscle analysis rig (806C), maintained at body temperature via a circulating water system. The knee was immobilized in a clamp between two sharpened screws and the foot attached securely to the footplate of a force transducer (Aurora Scientific, Ontario, Canada) using laboratory tape. The muscle was stimulated directly via the sciatic nerve. For isolation of the nerve, a 1 cm incision was made at the upper thigh and the overlying muscle was dissected to expose an approximate 5 mm stretch of the sciatic nerve. This was then dissected free of surrounding connective tissue and a pair of stainless steel needle electrodes (0.10 mm) were hooked around the exposed nerve. The peroneal branch was severed to remove innervation to the plantar-extensor muscle groups. Muscle contractile properties were assessed by applying an electrical current to the nerve and recording the force generated by the muscle via a servomotor. Isokinetic contractile properties were assessed as force generated during a pre-programmed movement of the footplate. Footplate movements were 0.7 radians in size ([…]).
Solutions of Compound A (50% PEG300/10% EtOH/40% cavitron formulation) were administered via a femoral vein catheter as a single slow bolus over a 2 min period, with a maximal dosage volume of 5 ml/Kg. During the experiment, blood was drawn via the tail vein for compound concentration analysis. At the end of each assay, the length and weight of the muscle was recorded, and measured force normalized to the mass of the muscle (N/g).
Compound A increased force generation throughout the curve to generate a total of 55% more work over the 300 second period, while maintaining a similar profile to that of the vehicle.
The same protocol was repeated with a second skeletal muscle troponin activator, 1-((1R)-1-methylpropyl)-6-chloro-7-pyrazolylimidazo[4,5-b]pyridin-2-ol (Compound B). Compound B and analogous skeletal muscle troponin activators are disclosed in U.S. Pat. No. 7,989,469. […] 0.7 radian displacement and stimulation frequency calculated to provide 50% of maximum isokinetic tension. Compound B maintained force generation throughout the curve, at almost 50% of vehicle stimulation frequency, to generate the same total work over the 300 second period, while maintaining a similar profile to that of the vehicle.

healthy female rats = test: Cage grid hang time; assay type: in vivo, rat
Description: Static fatigue in conscious rats was assessed by measuring the length of time that healthy female rats would hang upside down from a cage grid. Rats were trained to hang upside-down from a cage grid and the time to drop to soft padding below was recorded. Baseline hang-times were recorded for each animal (n=24) for a two week period of time. The rats were then treated with Compound A (200 ppm) in chow for two weeks while hang times were monitored daily. Finally, the rats were withdrawn from Compound A in their chow for five days while hang times were recorded daily.

healthy rats = test: Fatigue-rotarod running time test; assay type: in vivo, rat; details: between 0.3 mg/kg and 100 mg/kg, FIG. 16
Description: The effect of the fast skeletal muscle troponin activator 1-(2-(((trans)-3-fluoro-1-(3-fluoropyridin-2-yl)cyclobutyl)methylamino)pyrimidin-5-yl)-1H-pyrrole-3-carboxamide (Compound C) on muscle fatigue in healthy rats was determined by a rotarod running time test. Compound C was administered to test rats at the doses between 0.3 mg/kg and 100 mg/kg (˜70 nM-28 μM). On the day of the assessment, the animals began by running at an increasing speed from 14-16 RPM over 5 minutes. Rats were then run at a constantly accelerating rate from 12 RPM to 25 RPM over the course of 10 minutes. Time to fall was recorded, with the test being terminated at 600 seconds. The plasma levels were determined at the end of the experiments (not at Cmax). The plasma levels for the indicated doses were determined to be the following: […]

fast skeletal myofibrils = biological target: T1, fast skeletal myofibrils (Homo sapiens, UniProt P02585); details: cited from earlier work
T1 construct: from tissue; host or cells: fast skeletal muscle myofibrils

[2] = biological target: T2, myofibrils from cardiac muscle (Homo sapiens, UniProt P63316); details: cited from earlier work
T2 construct: from tissue; host or cells: cardiac muscle myofibrils

[3] = test system: patients with peripheral artery disease and claudication; test: 6-Minute Walk Test, Phase II study; assay type: in vivo, human; details: single doses 375, 500, 750 mg; 4 hours after dosing
From the text: (§1) This study was a double-blind, randomized, placebo-controlled, three-period cross-over, hypothesis generating Phase II study in patients with peripheral artery disease and claudication. […] Secondary objectives included (a) evaluation and characterization of the relationship, if any, between the doses and plasma concentrations of Compound A and its pharmacodynamic effects, and (b) evaluation of the safety and tolerability of Compound A administered as single doses.
(§2) Assessments include 1) Bilateral Heel Raise Test (as described below) using electrogoniometry at 3 and 6 hours after dosing, and 2) 6-Minute Walk Test at 4 hours after dosing. Results were analyzed using a repeated-measures ANCOVA with treatment, sequence, period, baseline, and patient in the model. In the event of model assumption violations, non-parametric methods were utilized

[4] = test system: patients with peripheral artery disease and claudication; test: Safety and tolerability, Phase II study; assay type: in vivo, human
Description: as §1
as §2, with “Single doses of each of 375 mg Compound A, 750 mg Compound A and placebo were administered in random order with a 6 to 10 day wash out between each dose. […] Assessments” for “Assessments”

[5] = biological target: T3, myofibrils from slow skeletal muscle (Homo sapiens, UniProt P63316); details: cited from earlier work
T3 construct: from tissue; host or cells: slow skeletal muscle myofibrils

[6] = Plasma concentrations, Phase II study; assay type: in vivo, human
[7] = 200 ppm in chow, average final three days of two week dosing
[8] = after withdrawal, average final three days of five day period

T1 sequence (P02585 whole entry): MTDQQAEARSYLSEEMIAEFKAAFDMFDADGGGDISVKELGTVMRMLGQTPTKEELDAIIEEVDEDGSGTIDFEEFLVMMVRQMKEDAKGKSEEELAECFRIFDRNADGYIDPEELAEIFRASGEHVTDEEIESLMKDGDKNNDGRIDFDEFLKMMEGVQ
T1 sequence (P48788 whole entry partner): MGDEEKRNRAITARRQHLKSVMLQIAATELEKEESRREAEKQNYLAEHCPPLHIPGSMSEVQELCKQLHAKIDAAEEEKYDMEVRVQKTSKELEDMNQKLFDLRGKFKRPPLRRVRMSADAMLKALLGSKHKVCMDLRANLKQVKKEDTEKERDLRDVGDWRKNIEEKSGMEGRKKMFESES
T1 sequence (P45378 whole entry partner): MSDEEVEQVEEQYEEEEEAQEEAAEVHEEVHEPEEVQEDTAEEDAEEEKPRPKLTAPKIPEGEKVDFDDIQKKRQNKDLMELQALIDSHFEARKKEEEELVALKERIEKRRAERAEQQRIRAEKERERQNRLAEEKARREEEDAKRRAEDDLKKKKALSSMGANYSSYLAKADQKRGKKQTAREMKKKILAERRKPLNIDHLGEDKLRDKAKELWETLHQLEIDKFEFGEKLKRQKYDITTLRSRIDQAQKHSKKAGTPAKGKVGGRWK

C#Cc1cnc2nc(O)n(C(CC)CC)c2n1 [Compound A, 6-ethynyl-1-(pentan-3-yl)-1H-imidazo[4,5-b]pyrazin-2-ol]
isokinetic force frequency relationship ([1]; at 3.1 radians/s): increased in the submaximal range in a dose dependent manner
force-velocity relationship ([1]; at 30 Hz): increased across all velocities in a dose and velocity dependent manner
power output ([1]; corresponding to force velocities at 30 Hz): dose dependent increase
isometric force frequency relationship ([1]; in situ): increased in the submaximal range in a dose dependent manner
more total work over the 300 second period ([1]; isokinetic fatigue protocol, 1 flexion per second at 3.1 radians/s, 30 Hz, vs vehicle): 55%
grid hang time (healthy female rats; [7]): 899 ± 157 s
grid hang time compared to baseline (healthy female rats; [7]): 160±18%
grid hang time (healthy female rats; [8]): 698 ± 122 s
grid hang time, normalized performance (healthy female rats; [8]): 124±12%
running time vs vehicle controls (healthy rats): significant increases
myosin ATPase relationship to Ca2+ concentration (fast skeletal myofibrils): leftward-shift
effect in myofibrils [2]: little or no effect
distance traversed during 6-Minute Walk Test [3]: dose and concentration dependent decrease
adverse events ([4]; 750 mg single dose): adverse events in two patients
adverse events vs dose ([4]; single doses 375-750 mg): Dose related adverse events, particularly dizziness and others related to walking
effect in myofibrils [5]: little or no effect
mean plasma concentrations vs dose ([6]; 375, 500, 750 mg single doses): relatively dose proportional increases
mean plasma concentrations over 24-hour observation period ([6]; even at the 375 mg dose): remained within the pharmacologically active range
